Our source for the Ki and first pass metabolism values is patent publication EP1091938B1, “ANTIHISTAMINIC PIPERIDINE DERIVATIVES AND INTERMEDIATES FOR THE PREPARATION THEREOF” (Aventisub II Inc., priority 1998, dated 2000).

For data set [1], the target named is T1, H1-histaminergic receptors (Rattus norvegicus, UniProt P31390).
T1 construct: The brains of young male rats are removed; The cortici are dissected; from tissue; host or cells: rat brain cortex membrane homogenate
As to the kind of experiment: [3H] pyrilamine binding in rat cortex membranes. Particulars: displacement of 3H pyrilamine (2 nM final), rat cortex homogenate, 30 minute incubation at room temperature; Ki from IC50 with the Cheng-Prusoff equation. Here is the method:
Antihistaminic potential is measured by affinity of a test compound for [^3H] pyrilamine binding sites associated with the antagonist component of H1-histaminergic receptors in animal brain membranes. Affinity for this receptor is indicative of the potential of a test compound to interact with central and peripheral H1-histaminergic receptors.
The following method is used to determine the affinity of test compounds for [^3H] pyrilamine binding sites in rat cortex.
The brains of young male rats are removed. The cortici are dissected and stored at -20°C or immediately used. The tissue is homogenized in 10 ml of ice-cold […] K/NaPO4 buffer (pH 7.4) using a Polytron (setting 6 for 15 seconds). […]
The brains of young male rats are removed. […] The filters are either transferred to scintillation vials and 10 ml Quicksafe A is added for liquid scintillation spectrometry or a thin layer of solid scintillant is melted onto the filters and the filters then counted using a betaplate beta counter. Specific binding of ^3H pyrilamine is measured as the excess over blanks taken in the presence of 2.10-6 M promethazine. Protein content of the membranes is determined by the method of Lowry et al., J. Biol. Chem. 193, 265-275 (1951). Displacement curves are analyzed using the GraphPad (GraphPad Software, Inc.) or similar program to obtain Hill slopes and IC50 values. […]

For data set [2] the following is noted: extent of first pass metabolism to two primary metabolites; cited from earlier work.

T1 sequence (P31390 whole entry): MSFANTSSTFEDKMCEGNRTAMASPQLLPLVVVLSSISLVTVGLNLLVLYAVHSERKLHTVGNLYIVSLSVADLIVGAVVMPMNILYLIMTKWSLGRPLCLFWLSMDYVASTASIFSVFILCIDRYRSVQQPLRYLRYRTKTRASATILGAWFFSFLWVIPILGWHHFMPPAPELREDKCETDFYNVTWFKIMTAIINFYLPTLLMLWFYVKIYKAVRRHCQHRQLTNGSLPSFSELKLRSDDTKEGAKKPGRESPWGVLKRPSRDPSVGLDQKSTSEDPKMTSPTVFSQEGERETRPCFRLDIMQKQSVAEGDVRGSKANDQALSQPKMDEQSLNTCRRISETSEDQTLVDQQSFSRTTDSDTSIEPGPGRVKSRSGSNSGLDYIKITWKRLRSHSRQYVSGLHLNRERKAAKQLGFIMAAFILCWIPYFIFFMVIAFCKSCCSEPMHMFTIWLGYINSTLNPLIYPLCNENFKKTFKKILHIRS

A word on the Ki: it is a measure of affinity in units of concentration, obtained from inhibition or displacement. A higher Ki goes with weaker binding. The molecule `CC(CO)(C(=O)O)c1ccc(C(O)CCCN2CCC(C(O)(c3ccccc3)c3ccccc3)CC2)cc1` (stereo not drawn) [4-[1-hydroxy-4-[4-(hydroxydiphenylmethyl)-1-piperidinyl]butyl]-α-(hydroxymethyl)-α-methyl-benzeneacetic acid] yielded a Ki in data set [1] of 0.36 µM.

`CC(C)(C)c1ccc(C(O)CCCN2CCC(C(O)(c3ccccc3)c3ccccc3)CC2)cc1` (stereo not drawn) [Terfenadine, α-[4-(1,1-dimethylethyl)phenyl]-4-(hydroxydiphenylmethyl)-1-piperidinebutanol]: the first pass metabolism in data set [2] is 99%.
